According to patent US7473790B2 (Pfizer Inc., priority 2003, dated 2009):

Biological target: T1, HCV polymerase (Hepatitis C virus genotype 1b, UniProt P26663)
T1 construct: 2.5 pmoles (0.15 μg) HCV polymerase protein in a final volume of 75 μL
Assay: HCV polymerase primer/template-directed transcription assay (32P-GTP incorporation, filter binding)
Assay type: biochemical
Conditions: recombinant HCV polymerase; 30 minutes at 30° C.; concentration giving 50% inhibition of polymerase-directed transcription; read-out: IC50
Outline: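 IC50s come from triplicate cpm, refit with an enzyme-concentration (30 nM) correction when under 200 nM. Reactions ran 30 min at 30° C in Tris pH 7.2 with MgCl2, 1 μM GTP spiked with α-32P-GTP, biotin-dG12 primer and poly(rC)300 template, with 1% DMSO. Incorporated label was collected on DE filtermats and counted.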

T1 sequence (P26663 2420-3010): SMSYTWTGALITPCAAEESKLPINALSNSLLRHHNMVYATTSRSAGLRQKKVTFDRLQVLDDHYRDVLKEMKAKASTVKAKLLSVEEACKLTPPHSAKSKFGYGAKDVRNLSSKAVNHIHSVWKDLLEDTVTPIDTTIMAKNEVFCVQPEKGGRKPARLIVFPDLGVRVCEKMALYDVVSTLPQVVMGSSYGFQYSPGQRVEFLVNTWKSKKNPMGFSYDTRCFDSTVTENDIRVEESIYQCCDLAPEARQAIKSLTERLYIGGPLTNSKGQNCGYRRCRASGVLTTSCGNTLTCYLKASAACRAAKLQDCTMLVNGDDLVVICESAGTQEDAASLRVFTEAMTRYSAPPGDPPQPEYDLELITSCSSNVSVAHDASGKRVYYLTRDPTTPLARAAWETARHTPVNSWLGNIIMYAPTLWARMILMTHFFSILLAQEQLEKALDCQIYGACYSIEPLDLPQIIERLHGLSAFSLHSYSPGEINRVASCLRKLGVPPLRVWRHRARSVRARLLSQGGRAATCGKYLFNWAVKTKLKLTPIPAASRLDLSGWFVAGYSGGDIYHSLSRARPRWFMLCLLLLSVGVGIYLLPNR

Cc1cc(C)n2nc(SC3=C(O)CC(CCc4ccc(OC(C)C)c(F)c4)(C4CCCC4)OC3=O)nc2n1 (centres unmarked) [C(07), 6-Cyclopentyl-3-(5,7-dimethyl-[1,2,4]triazolo[1,5-a]pyrimidin-2-ylsulfanyl)-6-[2-(3-fluoro-4-isopropoxy-phenyl)-ethyl]-4-hydroxy-5,6-dihydro-pyran-2-one]
IC50: 19 nM

CCc1ccc(O)c(CCC2(C3CCCC3)CC(=O)CC(=O)O2)c1 (centres unmarked) [A(169), 6-Cyclopentyl-6-[2-(5-ethyl-2-hydroxy-phenyl)-ethyl]-dihydro-pyran-2,4-dione]
IC50: 400 nM

CNC(=O)C(C)(C)c1ccc(CCC2(C3CCCC3)CC(=O)CC(=O)O2)cc1 (centres unmarked) [A(49), 2-{4-[2-(2-Cyclopentyl-4,6-dioxo-tetrahydro-pyran-2-yl)-ethyl]-phenyl}-N-methyl-isobutyramide]
IC50: 9000 nM

CC(C)(O)c1ccc(CCC2(C3CCCC3)CC(O)=C(Cc3nc4ncccn4n3)C(=O)O2)cc1F (centres unmarked) [A(220), 6-cyclopentyl-6-{2-[3-fluoro-4-(1-hydroxy-1-methylethyl)phenyl]ethyl}-4-hydroxy-3-([1,2,4]triazolo[1,5-a]pyrimidin-2-ylmethyl)-5,6-dihydro-2H-pyran-2-one]
IC50: 172 nM

CCc1cc(CCC2(C3CCCC3)CC(O)=C(Cc3nc4ncc(C)cn4n3)C(=O)O2)cc(CC)c1O (centres unmarked) [A(233), 6-cyclopentyl-6-[2-(3,5-diethyl-4-hydroxyphenyl)ethyl]-4-hydroxy-3-[(6-methyl[1,2,4]triazolo[1,5-a]pyrimidin-2-yl)methyl]-5,6-dihydro-2H-pyran-2-one]
IC50: 11 nM

CCc1cc(CCC2(C3CCCC3)CC(=O)CC(=O)O2)ccc1N(C)S(C)(=O)=O (centres unmarked) [A(87)]
IC50: 890 nM

Cc1noc(C)c1-c1ccc(CCC2(C3CCCC3)CC(O)=C(Sc3nc4cc(Cl)ccc4n3C)C(=O)O2)cc1 (centres unmarked) [C(14), 3-(5-Chloro-1-methyl-1H-benzoimidazol-2-ylsulfanyl)-6-cyclopentyl-6-{2-[4-(3,5-dimethyl-isoxazol-4-yl)-phenyl]-ethyl}-4-hydroxy-5,6-dihydro-pyran-2-one]
IC50: 14 nM

COc1ccc(CCC2(C3CCCC3)CC(O)=C(C(C)=O)C(=O)O2)cc1Cl (centres unmarked) [B(88), 3-Acetyl-6-[2-(3-chloro-4-methoxy-phenyl)-ethyl]-6-cyclopentyl-4-hydroxy-5,6-dihydro-pyran-2-one]
IC50: 5100 nM

CCc1cc(CCC2(C3CCCC3)CC(O)=C(Cc3nc[nH]c3C)C(=O)O2)c(OC)cc1O (centres unmarked) [A(156), 6-Cyclopentyl-6-[2-(5-ethyl-4-hydroxy-2-methoxy-phenyl)-ethyl]-4-hydroxy-3-(5-methyl-1H-imidazol-4-ylmethyl)-5,6-dihydro-pyran-2-one]
IC50: 21 nM

Cc1cc(C)n2nc(CC3=C(O)CC(CCc4ccc(C(C)C)c(Cl)c4)(C4CCCC4)OC3=O)nc2n1 (centres unmarked) [B(44), 6-[2-(3-chloro-4-isopropylphenyl)ethyl]-6-cyclopentyl-3-[(5,7-dimethyl[1,2,4]triazolo[1,5-a]pyrimidin-2-yl)methyl]-4-hydroxy-5,6-dihydro-2H-pyran-2-one]
IC50: 53 nM

CC(C)Oc1ccc(CCC2(C3CCCC3)CC(O)=C(Sc3ncccn3)C(=O)O2)cc1F (centres unmarked) [C(11), 6-Cyclopentyl-6-[2-(3-fluoro-4-isopropoxy-phenyl)-ethyl]-4-hydroxy-3-(pyrimidin-2-ylsulfanyl)-5,6-dihydro-pyran-2-one]
IC50: 190 nM

COc1ccc(CCC2(C3CCCC3)CC(O)=C(Cc3ccc(-n4cncn4)cc3)C(=O)O2)cc1Cl (centres unmarked) [B(25), 6-[2-(3-Chloro-4-methoxy-phenyl)-ethyl]-6-cyclopentyl-4-hydroxy-3-(4-[1,2,4]triazol-1-yl-benzyl)-5,6-dihydro-pyran-2-one]
IC50: 240 nM

CNC(=O)N[C@H](C)c1ccc(CCC2(C3CCCC3)CC(=O)CC(=O)O2)cc1 (some centres unmarked) [A(41), 1-(1-{4-[2-(2-Cyclopentyl-4,6-dioxo-tetrahydro-pyran-2-yl)-ethyl]-phenyl}-ethyl)-3-methyl-urea]
IC50: 13000 nM

COc1ccc(CCC2(C3CCCC3)CC(O)=C(Sc3nc4cc(Cl)ccc4[nH]3)C(=O)O2)cc1Cl (centres unmarked) [C(49), 3-[(5-chloro-1H-benzimidazol-2-yl)thio]-6-[2-(3-chloro-4-methoxyphenyl)ethyl]-6-cyclopentyl-4-hydroxy-5,6-dihydro-2H-pyran-2-one]
IC50: 80 nM

CCc1cc(CCC2(C3CCCC3)CC(O)=C(Cc3nc4nc(C)cc(C)n4n3)C(=O)O2)ccc1Cl (centres unmarked) [B(113), 6-[2-(4-Chloro-3-ethyl-phenyl)-ethyl]-6-cyclopentyl-3-(5,7-dimethyl-[1,2,4]triazolo[1,5-a]pyrimidin-2-ylmethyl)-4-hydroxy-5,6-dihydro-pyran-2-one]
IC50: 19 nM

Cc1ccn2nc(CC3=C(O)CC(CCc4cc(F)c(C(C)(C)C#N)c(F)c4)(C4CCCC4)OC3=O)nc2n1 (centres unmarked) [A(253), 2-(4-{2-[2-Cyclopentyl-4-hydroxy-5-(5-methyl-[1,2,4]triazolo[1,5-a]pyrimidin-2-ylmethyl)-6-oxo-3,6-dihydro-2H-pyran-2-yl]-ethyl}-2,6-difluoro-phenyl)-2-methyl-propionitrile]
IC50: 6 nM

CC(C)Oc1ccc(CCC2(C3CCCC3)CC(O)=C(Sc3nnc(O)n3C(C)C)C(=O)O2)cc1F (centres unmarked) [C(12), 6-Cyclopentyl-6-[2-(3-fluoro-4-isopropoxy-phenyl)-ethyl]-4-hydroxy-3-(5-hydroxy-4-isopropyl-4H-[1,2,4]triazol-3-ylsulfanyl)-5,6-dihydro-pyran-2-one]
IC50: 82 nM

CCc1cc(CC)n2nc(CC3C(=O)CC(CCc4ccc(O)c(CC)c4)(C4CCCC4)OC3=O)nc2n1 (centres unmarked) [A(138), 6-cyclopentyl-3-[(5,7-diethyl[1,2,4]triazolo[1,5-a]pyrimidin-2-yl)methyl]-6-[2-(3-ethyl-4-hydroxyphenyl)ethyl]-4-hydroxy-5,6-dihydro-2H-pyran-2-one]
IC50: 8 nM

COc1ccc(CCC2(C3CCCC3)CC(O)=C(Cc3nc4nc(C)cc(C)n4n3)C(=O)O2)c(OC)c1 (centres unmarked) [B(117), 6-Cyclopentyl-6-[2-(2,4-dimethoxy-phenyl)-ethyl]-3-(5,7-dimethyl-[1,2,4]triazolo[1,5-a]pyrimidin-2-ylmethyl)-4-hydroxy-5,6-dihydro-pyran-2-one]
IC50: 111 nM

CCCC1(CCc2ccc(OC)cc2)CC(=O)CC(=O)O1 (centres unmarked) [A(25), 6-[2-(4-Methoxy-phenyl)-ethyl]-6-propyl-dihydro-pyran-2,4-dione]
IC50: 73900 nM

Cc1cc(C)n2nc(CC3C(=O)CC(CCc4cccc(Cl)c4)(C4CCCC4)OC3=O)nc2n1 (centres unmarked) [B(51), 6-[2-(3-chlorophenyl)ethyl]-6-cyclopentyl-3-[(5,7-dimethyl[1,2,4]triazolo[1,5-a]pyrimidin-2-yl)methyl]dihydro-2H-pyran-2,4(3H)-dione]
IC50: 72 nM

CC(=O)c1ccc(CCC2(C3CCCC3)CC(O)=C(Cc3nc4nc(C)cc(C)n4n3)C(=O)O2)cc1Cl (centres unmarked) [B(124), 6-[2-(4-Acetyl-3-chloro-phenyl)-ethyl]-6-cyclopentyl-3-(5,7-dimethyl-[1,2,4]triazolo[1,5-a]pyrimidin-2-ylmethyl)-4-hydroxy-5,6-dihydro-pyran-2-one]
IC50: 90 nM

COc1ccc(CCC2(C3CCCC3)CC(O)=C(Cc3ccc(-n4cccn4)cc3)C(=O)O2)cc1Cl (centres unmarked) [B(24), 6-[2-(3-Chloro-4-methoxy-phenyl)-ethyl]-6-cyclopentyl-4-hydroxy-3-(4-pyrazol-1-yl-benzyl)-5,6-dihydro-pyran-2-one]
IC50: 140 nM

CCCOc1ccc(CCC2(C3CCCC3)CC(O)=C(Cc3nc4nc(C)cc(C)n4n3)C(=O)O2)cc1 (centres unmarked) [B(41), 6-Cyclopentyl-3-(5,7-dimethyl-[1,2,4]triazolo[1,5-a]pyrimidin-2-ylmethyl)-4-hydroxy-6-[2-(4-propoxy-phenyl)-ethyl]-5,6-dihydro-pyran-2-one]
IC50: 120 nM

CC(C)(C#N)c1ccc(CCC2(C3CCCC3)CC(O)=C(Cc3cccc(S(C)(=O)=O)c3)C(=O)O2)cc1F (centres unmarked) [A(101), 2-[4-(2-{2-cyclopentyl-4-hydroxy-5-[3-(methylsulfonyl)benzyl]-6-oxo-3,6-dihydro-2H-pyran-2-yl}ethyl)-2-fluorophenyl]-2-methylpropanenitrile]
IC50: 66 nM

CC1(C)C(=O)Oc2ccc(CCC3(C4CCCC4)CC(=O)CC(=O)O3)cc21 (centres unmarked) [A(68), 6-Cyclopentyl-6-[2-(3,3-dimethyl-2-oxo-2,3-dihydro-benzofuran-5-yl)-ethyl]-dihydro-pyran-2,4-dione]
IC50: 3400 nM
